Laboratory results reported in the OligoGym collection.
Several values for one entry are separate records, joined by “and”; a condition that tells them apart may be missing. Equal values may be shown once. After the bases stand the sugars from the 5' end (letter, count) and the backbone: PS all phosphorothioate, else s phosphorothioate and o phosphodiester by linkage. Methylation of C is not given here. l = locked nucleic acid (LNA); d = 2'-deoxy (DNA)

Tests used:
MYH7 = details: ASO, CC-2580, 5 µM
ANGPTL2 = details: ASO

| Sequence | target mRNA inhibition (MYH7) | target mRNA inhibition (ANGPTL2; 5 µM) | target mRNA inhibition (ANGPTL2; 25 µM) |
| --- | --- | --- | --- |
| AAAGGATGTAAGATGCA (sugars l4 d9 l4, PS) | 88% and 89% | – | – |
| AGTTGATAGTTTATCTCCT (sugars l2 d15 l2, PS) | – | 59.7% | 67.4% |
| ATAGTGGGCAGAGGGGG (sugars l1 d14 l2, PS) | – | 21.6% | 13.4% |
| ATCAATAGGCAGACAGGC (sugars l2 d14 l2, PS) | – | 50.1% | 65.4% |
| ATGGTGGTTATTCTTTGTGA (sugars l1 d17 l2, PS) | – | 33% | 35.7% |
| ATTGTGGGTTGGAGGGC (sugars l1 d14 l2, PS) | – | 30.3% | 18.7% |
| ATTTTGAGATTCCCCCAAA (sugars l1 d14 l4, PS) | – | 7.37% | -8.2% |
| CAAAGGCATTTCAGTTCC (sugars l1 d14 l3, PS) | – | 56.8% | 70.4% |
| CAGCCAGTAAATGTTCTCCA (sugars l1 d17 l2, PS) | – | 42.8% | 38% |
| CAGCTTGGCGATGATCT (sugars dlddlddddddlddlll, PS) | 50% and 32% | – | – |
| CAGCTTGGCGATGATCT (sugars l2 d8 l1 d2 l4, PS) | 37% and 35% | – | – |
| CAGCTTGGCGATGATCT (sugars l2 d8 l1 d3 l3, PS) | 48% and 29% | – | – |
| CAGCTTGGCGATGATCT (sugars l2 d9 l1 d2 l3, PS) | 59% and 54% | – | – |
| CAGCTTGGCGATGATCT (sugars l2 d11 l1 d1 l2, PS) | 66% and 46% | – | – |
| CAGCTTGGCGATGATCT (sugars l3 d9 l1 d2 l2, PS) | 64% and 46% | – | – |
| CAGCTTGGCGATGATCT (sugars lddldddddddldldll, PS) | 14% and 8% | – | – |
| CAGCTTGGCGATGATCT (sugars lddlddddddldldlll, PS) | 20% and 19% | – | – |
| CAGCTTGGCGATGATCT (sugars lddlddddddlldddll, PS) | -44% and -36% | – | – |
| CAGCTTGGCGATGATCT (sugars lddldddllddddddll, PS) | 23% and 16% | – | – |
| CAGCTTGGCGATGATCT (sugars lddldldddldddddll, PS) | 12% and -4% | – | – |
| CAGCTTGGCGATGATCT (sugars lddlldddddlddddll, PS) | 31% and 7% | – | – |
| CAGCTTGGCGATGATCT (sugars ldldddddddldlddll, PS) | 9% and -10% | – | – |
| CAGCTTGGCGATGATCT (sugars ldldddddddlldldll, PS) | 38% and 34% | – | – |

| Sequence | target mRNA inhibition (MYH7) | target mRNA inhibition (ANGPTL2; 5 µM) | target mRNA inhibition (ANGPTL2; 25 µM) |
| --- | --- | --- | --- |
| CAGCTTGGCGATGATCT (sugars ldldlldlddddddlll, PS) | 30% and 32% | – | – |
| CAGCTTGGCGATGATCT (sugars ldllddlddldddddll, PS) | 28% and 5% | – | – |
| CAGCTTGGCGATGATCT (sugars llddddddddlldldll, PS) | 14% and 18% | – | – |
| CAGCTTGGCGATGATCT (sugars lldddddddldddldll, PS) | 5% and -8% | – | – |
| CAGCTTGGCGATGATCT (sugars llddlddlddddddlll, PS) | 9% and -16% | – | – |
| CAGCTTGGCGATGATCT (sugars lldlldddddlddddll, PS) | 34% and 16% | – | – |
| CAGGCCAACACTAACTC (sugars l1 d12 l4, PS) | – | 66.9% | 82.5% |
| CAGGTCCTTGTACTTGC (sugars l2 d13 l2, PS) | – | 49.2% | 62% |
| CATTTTGAGATTCCCCCA (sugars l1 d15 l2, PS) | – | 22.1% | 21.1% |
| CCAACACTAACTCGGC (sugars l2 d12 l2, PS) | – | 36% | 54.3% |
| CCACCCATTTAGCCTTC (sugars l1 d14 l2, PS) | – | 46.7% | 42.7% |
| CCAGAGCTAATCAGTGG (sugars l2 d13 l2, PS) | – | 39.4% | 48.8% |
| CCATTTTGAGATTCCCCCAA (sugars l3 d15 l2, PS) | – | 44.4% | 43.9% |
| CCCACAATGAGACTGGT (sugars l2 d13 l2, PS) | – | 30.2% | 30.4% |
| CTAGACATACCATCTA (sugars l3 d10 l3, PS) | – | 34.9% | 40% |
| CTAGTGTGCTCTGGAGC (sugars l1 d14 l2, PS) | – | 36.6% | 65.7% |
| CTCCAAATTAAATCCG (sugars l4 d9 l3, PS) | – | 22.4% | 32.3% |
| CTGGAAAGAAGGGGCTGTG (sugars l1 d16 l2, PS) | – | 38.8% | 30.4% |
| CTGGGTTATATTCTCTT (sugars l2 d12 l3, PS) | – | 39.4% | 43.5% |
| CTGGTTGATGATGCGGTT (sugars l1 d15 l2, PS) | – | 56% | 66% |
| CTTGGCAATGATCTCATCC (sugars l1 d11 l1 d2 l4, PS) | 54% and 33% | – | – |
| CTTGGCAATGATCTCATCC (sugars l3 d10 l1 d2 l3, PS) | 80% and 64% | – | – |
| CTTGGCAATGATCTCATCC (sugars l3 d11 l1 d1 l3, PS) | 85% and 74% | – | – |

| Sequence | target mRNA inhibition (MYH7) | target mRNA inhibition (ANGPTL2; 5 µM) | target mRNA inhibition (ANGPTL2; 25 µM) |
| --- | --- | --- | --- |
| CTTGGCAATGATCTCATCC (sugars ldddddddldddlddldll, PS) | 50% and 34% | – | – |
| CTTGGCAATGATCTCATCC (sugars ldddddddlddlddlddll, PS) | 44% and 27% | – | – |
| CTTGGCAATGATCTCATCC (sugars ldddddddldlddldldll, PS) | 22% and 4% | – | – |
| CTTGGCAATGATCTCATCC (sugars lddddddllddlddlddll, PS) | 26% and 5% | – | – |
| CTTGGCAATGATCTCATCC (sugars ldddldddddldlddddll, PS) | 12% and 1% | – | – |
| CTTGGCAATGATCTCATCC (sugars lddldddddddlddlddll, PS) | 60% and 37% | – | – |
| CTTGGCAATGATCTCATCC (sugars lddldddddddldldldll, PS) | 34% and 17% | – | – |
| CTTGGCAATGATCTCATCC (sugars lddlddddddlddldldll, PS) | 14% and 6% | – | – |
| CTTGGCAATGATCTCATCC (sugars lddlddddddldlddldll, PS) | -3% and -25% | – | – |
| CTTGGCAATGATCTCATCC (sugars lddlddddddlldldldll, PS) | -14% and -32% | – | – |
| CTTGGCAATGATCTCATCC (sugars ldldddddddllddlddll, PS) | 64% and 47% | – | – |
| CTTGGCAATGATCTCATCC (sugars ldldddddddlldldldll, PS) | 24% and 29% | – | – |
| CTTGGCAATGATCTCATCC (sugars lldddddddlddldlddll, PS) | 59% and 34% | – | – |
| CTTGGCAATGATCTCATCC (sugars llddlddddddddlddlll, PS) | 53% and 28% | – | – |
| CTTGGCAATGATCTCATCC (sugars lldlddddddddddldlll, PS) | 69% and 47% | – | – |
| CTTGGCAATGATCTCATCC (sugars lldldddddddlddlddll, PS) | 58% and 45% | – | – |
| CTTGGCAATGATCTCATCC (sugars lllddddddlddlddldll, PS) | 44% and 26% | – | – |
| GAAGAAAAGAGCACATGG (sugars l3 d11 l4, PS) | – | 33.2% | 9.98% |
| GCCAACACTAACTCGGC (sugars l1 d14 l2, PS) | – | 30.6% | 31.4% |
| GCTCCGGTAATGGCCC (sugars l1 d12 l3, PS) | – | 25.9% | 29.2% |
| GCTCTCATAATCCTAC (sugars l2 d11 l3, PS) | – | 59.2% | 65.4% |
| GTCATAGAAACTACCCC (sugars l1 d13 l3, PS) | – | 29.1% | 68.1% |
| GTGGGCAAGAGGGATGC (sugars l1 d14 l2, PS) | – | 35% | 32.2% |

| Sequence | target mRNA inhibition (MYH7) | target mRNA inhibition (ANGPTL2; 5 µM) | target mRNA inhibition (ANGPTL2; 25 µM) |
| --- | --- | --- | --- |
| GTTATGCCCATTTCTAGG (sugars l1 d15 l2, PS) | – | 47.7% | 58.8% |
| GTTCGTCAGCCAGTAA (sugars l2 d11 l3, PS) | – | 46.5% | 75.5% |
| GTTGATAGTTTATCTCC (sugars l3 d12 l2, PS) | – | 87.4% | 88.8% |
| GTTGATAGTTTATCTCCT (sugars l1 d14 l3, PS) | – | 64.1% | 76.7% |
| GTTGATGATGCGGTTGTAG (sugars l1 d16 l2, PS) | – | 22.9% | 34% |
| TAATAGGCACACACCCAGAC (sugars l1 d17 l2, PS) | – | 27.2% | 43.3% |
| TAATGGCTGAGATGCAG (sugars l4 d11 l2, PS) | – | 36% | 52.6% |
| TAATTCACCGCCAAATTAC (sugars l3 d13 l3, PS) | – | 27.6% | 36.8% |
| TCAGCTTGGCGATGATCT (sugars l2 d6 l1 d5 l4, PS) | 58% and 46% | – | – |
| TCAGCTTGGCGATGATCT (sugars l2 d6 l1 d6 l3, PS) | 47% and 23% | – | – |
| TCAGCTTGGCGATGATCT (sugars l2 d9 l1 d3 l3, PS) | 40% and 33% | – | – |
| TCAGCTTGGCGATGATCT (sugars l2 d11 l1 d1 l3, PS) | 64% and 55% | – | – |
| TCCGGTAATGGCCCC (sugars l1 d12 l2, PS) | – | 34% | 51.8% |
| TGTTTGGAAATGTTATCT (sugars l3 d11 l4, PS) | – | 80.9% | 87.1% |
| TTAGTGGAAGGTGTTGG (sugars l3 d12 l2, PS) | – | 51.1% | 62.8% |
| TTATGCACTCGGTTCTCC (sugars l1 d15 l2, PS) | – | 30.6% | 46.6% |
| TTGATGATGCGGTTGTA (sugars l3 d12 l2, PS) | – | 76.5% | 83.1% |
| TTGATGATGCGGTTGTAG (sugars l3 d13 l2, PS) | – | 70.7% | 77.8% |
| TTGGTTCGTCAGCCAG (sugars l1 d12 l3, PS) | – | 49.1% | 65% |
| TTTCTAAACTCTCACCCTG (sugars l1 d15 l3, PS) | – | 26.4% | 25.1% |
